Measured values reported in PubChem BioAssay (NCI).
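Five concentrations, 48 hours, 96-well plates. The concentration for 50% growth inhibition is given as GI50. TGI: concentration producing complete growth inhibition.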

Legend:
Assay in all cases: NCI-60 cell line screen, 48 h
786-0 renal = system: 786-0 renal
A498 renal = system: A498 renal
A549 NSCLC = system: A549 NSCLC
ACHN renal = system: ACHN renal
BT-549 breast = system: BT-549 breast
CAKI-1 renal = system: CAKI-1 renal
CCRF-CEM leukemia = system: CCRF-CEM leukemia
COLO 205 colon = system: COLO 205 colon
DU-145 prostate = system: DU-145 prostate
EKVX NSCLC = system: EKVX NSCLC
HCC-2998 colon = system: HCC-2998 colon
HCT-116 colon = system: HCT-116 colon
HCT-15 colon = system: HCT-15 colon
HL-60(TB) leukemia = system: HL-60(TB) leukemia
HOP-62 NSCLC = system: HOP-62 NSCLC
HOP-92 NSCLC = system: HOP-92 NSCLC
HS 578T breast = system: HS 578T breast
HT29 colon = system: HT29 colon
IGROV1 ovarian = system: IGROV1 ovarian
K-562 leukemia = system: K-562 leukemia
KM12 colon = system: KM12 colon
LOX IMVI melanoma = system: LOX IMVI melanoma
M14 melanoma = system: M14 melanoma
MCF7 breast = system: MCF7 breast
MDA-MB-231 breast = system: MDA-MB-231 breast
MDA-MB-435 = system: MDA-MB-435
MOLT-4 leukemia = system: MOLT-4 leukemia
NCI-H226 lung = system: NCI-H226 lung
NCI-H23 lung = system: NCI-H23 lung
NCI-H460 lung = system: NCI-H460 lung
NCI-H522 lung = system: NCI-H522 lung
NCI/ADR-RES ovarian = system: NCI/ADR-RES ovarian
OVCAR-3 ovarian = system: OVCAR-3 ovarian
OVCAR-4 ovarian = system: OVCAR-4 ovarian
OVCAR-5 ovarian = system: OVCAR-5 ovarian
OVCAR-8 ovarian = system: OVCAR-8 ovarian
PC-3 prostate = system: PC-3 prostate
RPMI-8226 leukemia = system: RPMI-8226 leukemia
RXF 393 renal = system: RXF 393 renal
SF-268 CNS = system: SF-268 CNS
SF-295 CNS = system: SF-295 CNS
SF-539 CNS = system: SF-539 CNS
SK-MEL-2 melanoma = system: SK-MEL-2 melanoma
SK-MEL-28 melanoma = system: SK-MEL-28 melanoma
SK-MEL-5 melanoma = system: SK-MEL-5 melanoma
SK-OV-3 ovarian = system: SK-OV-3 ovarian
SN12C renal = system: SN12C renal
SNB-19 CNS = system: SNB-19 CNS
SNB-75 CNS = system: SNB-75 CNS
SR leukemia = system: SR leukemia
SW-620 colon = system: SW-620 colon
T-47D breast = system: T-47D breast
TK-10 renal = system: TK-10 renal
U251 CNS = system: U251 CNS
UACC-257 melanoma = system: UACC-257 melanoma
UACC-62 melanoma = system: UACC-62 melanoma
UO-31 renal = system: UO-31 renal

For `Cc1ccc(S(=O)(=O)Oc2ccccc2-c2ccccc2)cc1`, which GI50 (786-0 renal) is on record?
The GI50 was 8.26 µM.

And the TGI (786-0 renal)?
Its TGI is over 100 µM.

And the GI50 (A498 renal)?
The GI50 was 1.42 µM.

What about the TGI (A498 renal) of the same compound?
The TGI was 8.94 µM.

What about the GI50 (A549 NSCLC) of the same compound?
The GI50 was 4.4 µM.

What about the TGI (A549 NSCLC) of the same compound?
Its TGI is over 100 µM.

And the GI50 (ACHN renal)?
Its GI50 is 6.81 µM.

What about the TGI (ACHN renal) of the same compound?
The TGI was over 100 µM.

And the GI50 (BT-549 breast)?
Its GI50 is 8.41 µM.

What about the TGI (BT-549 breast) of the same compound?
Its TGI is over 100 µM.

What about the GI50 (CAKI-1 renal) of the same compound?
The GI50 was 1.3 µM.

And the TGI (CAKI-1 renal)?
The TGI was over 25.5 µM.

What about the GI50 (CCRF-CEM leukemia) of the same compound?
The GI50 was 2.48 µM.

And the TGI (CCRF-CEM leukemia)?
The TGI was over 100 µM.

And the GI50 (COLO 205 colon)?
Its GI50 is 2.25 µM.

What about the TGI (COLO 205 colon) of the same compound?
Its TGI is 8.41 µM.

And the GI50 (DU-145 prostate)?
Its GI50 is 2.87 µM.

And the TGI (DU-145 prostate)?
The TGI was over 29.8 µM.

What about the GI50 (EKVX NSCLC) of the same compound?
Its GI50 is 3.21 µM.

What about the TGI (EKVX NSCLC) of the same compound?
Its TGI is over 100 µM.

What about the GI50 (HCC-2998 colon) of the same compound?
Its GI50 is 3.87 µM.

And the TGI (HCC-2998 colon)?
The TGI was over 72.7 µM.

What about the GI50 (HCT-116 colon) of the same compound?
The GI50 was 2.85 µM.

What about the TGI (HCT-116 colon) of the same compound?
Its TGI is over 100 µM.

And the GI50 (HCT-15 colon)?
The GI50 was 1.62 µM.

And the TGI (HCT-15 colon)?
Its TGI is over 100 µM.

What about the GI50 (HL-60(TB) leukemia) of the same compound?
Its GI50 is 2.12 µM.

And the TGI (HL-60(TB) leukemia)?
The TGI was over 100 µM.

And the GI50 (HOP-62 NSCLC)?
The GI50 was 4.24 µM.

And the TGI (HOP-62 NSCLC)?
Its TGI is over 100 µM.

And the GI50 (HOP-92 NSCLC)?
Its GI50 is 5.73 µM.

What about the TGI (HOP-92 NSCLC) of the same compound?
Its TGI is over 100 µM.

What about the GI50 (HS 578T breast) of the same compound?
Its GI50 is 3.09 µM.

What about the TGI (HS 578T breast) of the same compound?
Its TGI is over 26.9 µM.

What about the GI50 (HT29 colon) of the same compound?
The GI50 was 1.18 µM.

And the TGI (HT29 colon)?
The TGI was over 43.2 µM.

What about the GI50 (IGROV1 ovarian) of the same compound?
The GI50 was 2.16 µM.

And the TGI (IGROV1 ovarian)?
Its TGI is over 100 µM.

And the GI50 (K-562 leukemia)?
Its GI50 is 0.524 µM.

What about the TGI (K-562 leukemia) of the same compound?
Its TGI is over 100 µM.

What about the GI50 (KM12 colon) of the same compound?
Its GI50 is 0.743 µM.

What about the TGI (KM12 colon) of the same compound?
The TGI was over 100 µM.

What about the GI50 (LOX IMVI melanoma) of the same compound?
Its GI50 is 4.22 µM.

What about the TGI (LOX IMVI melanoma) of the same compound?
The TGI was over 100 µM.

And the GI50 (M14 melanoma)?
The GI50 was 2.05 µM.

What about the TGI (M14 melanoma) of the same compound?
Its TGI is over 86.1 µM.

And the GI50 (MCF7 breast)?
Its GI50 is 2.47 µM.

What about the TGI (MCF7 breast) of the same compound?
The TGI was over 100 µM.

And the GI50 (MDA-MB-231 breast)?
The GI50 was 3.7 µM.

What about the TGI (MDA-MB-231 breast) of the same compound?
Its TGI is over 100 µM.

What about the GI50 (MDA-MB-435) of the same compound?
The GI50 was 0.249 µM.

What about the TGI (MDA-MB-435) of the same compound?
Its TGI is 0.834 µM.

What about the GI50 (MOLT-4 leukemia) of the same compound?
Its GI50 is 3.9 µM.

And the TGI (MOLT-4 leukemia)?
Its TGI is over 100 µM.

And the GI50 (NCI-H226 lung)?
The GI50 was 21.2 µM.

What about the TGI (NCI-H226 lung) of the same compound?
The TGI was over 100 µM.

What about the GI50 (NCI-H23 lung) of the same compound?
Its GI50 is 5.21 µM.

What about the TGI (NCI-H23 lung) of the same compound?
Its TGI is over 100 µM.

And the GI50 (NCI-H460 lung)?
Its GI50 is 2.32 µM.

What about the TGI (NCI-H460 lung) of the same compound?
The TGI was over 100 µM.

And the GI50 (NCI-H522 lung)?
Its GI50 is 0.542 µM.

What about the TGI (NCI-H522 lung) of the same compound?
Its TGI is 7.83 µM.

And the GI50 (NCI/ADR-RES ovarian)?
Its GI50 is 1.13 µM.

What about the TGI (NCI/ADR-RES ovarian) of the same compound?
The TGI was over 28.9 µM.

And the GI50 (OVCAR-3 ovarian)?
The GI50 was 1.81 µM.

What about the TGI (OVCAR-3 ovarian) of the same compound?
Its TGI is 6.94 µM.

And the GI50 (OVCAR-4 ovarian)?
Its GI50 is 7.13 µM.

What about the TGI (OVCAR-4 ovarian) of the same compound?
The TGI was over 100 µM.

What about the GI50 (OVCAR-5 ovarian) of the same compound?
The GI50 was 8.26 µM.

And the TGI (OVCAR-5 ovarian)?
Its TGI is over 100 µM.

And the GI50 (OVCAR-8 ovarian)?
The GI50 was 4.86 µM.

And the TGI (OVCAR-8 ovarian)?
The TGI was over 100 µM.

What about the GI50 (PC-3 prostate) of the same compound?
The GI50 was 3.52 µM.

And the TGI (PC-3 prostate)?
Its TGI is over 100 µM.

And the GI50 (RPMI-8226 leukemia)?
Its GI50 is 3.42 µM.

What about the TGI (RPMI-8226 leukemia) of the same compound?
The TGI was over 55.6 µM.

What about the GI50 (RXF 393 renal) of the same compound?
Its GI50 is 2.31 µM.

And the TGI (RXF 393 renal)?
The TGI was over 27.7 µM.

What about the GI50 (SF-268 CNS) of the same compound?
Its GI50 is 5.95 µM.

And the TGI (SF-268 CNS)?
The TGI was over 100 µM.

And the GI50 (SF-295 CNS)?
The GI50 was 0.702 µM.

And the TGI (SF-295 CNS)?
Its TGI is 3.3 µM.

And the GI50 (SF-539 CNS)?
The GI50 was 2.38 µM.

And the TGI (SF-539 CNS)?
Its TGI is 8.1 µM.

What about the GI50 (SK-MEL-2 melanoma) of the same compound?
The GI50 was 6.55 µM.

And the TGI (SK-MEL-2 melanoma)?
The TGI was over 26.1 µM.

And the GI50 (SK-MEL-28 melanoma)?
Its GI50 is 7.77 µM.

What about the TGI (SK-MEL-28 melanoma) of the same compound?
The TGI was over 100 µM.

What about the GI50 (SK-MEL-5 melanoma) of the same compound?
The GI50 was 2.98 µM.

What about the TGI (SK-MEL-5 melanoma) of the same compound?
The TGI was over 100 µM.

What about the GI50 (SK-OV-3 ovarian) of the same compound?
The GI50 was 3.24 µM.

And the TGI (SK-OV-3 ovarian)?
Its TGI is over 45.8 µM.

And the GI50 (SN12C renal)?
The GI50 was 6.18 µM.

And the TGI (SN12C renal)?
Its TGI is over 100 µM.

And the GI50 (SNB-19 CNS)?
Its GI50 is 5.24 µM.

What about the TGI (SNB-19 CNS) of the same compound?
The TGI was over 100 µM.

What about the GI50 (SNB-75 CNS) of the same compound?
Its GI50 is 2.63 µM.

What about the TGI (SNB-75 CNS) of the same compound?
The TGI was over 29 µM.

What about the GI50 (SR leukemia) of the same compound?
Its GI50 is 0.465 µM.

What about the TGI (SR leukemia) of the same compound?
Its TGI is over 70.7 µM.

What about the GI50 (SW-620 colon) of the same compound?
The GI50 was 1.03 µM.

And the TGI (SW-620 colon)?
The TGI was over 100 µM.

And the GI50 (T-47D breast)?
Its GI50 is 5.14 µM.

And the TGI (T-47D breast)?
Its TGI is over 100 µM.

What about the GI50 (TK-10 renal) of the same compound?
Its GI50 is 12 µM.

And the TGI (TK-10 renal)?
Its TGI is over 100 µM.

And the GI50 (U251 CNS)?
The GI50 was 3.81 µM.

What about the TGI (U251 CNS) of the same compound?
Its TGI is over 100 µM.

And the GI50 (UACC-257 melanoma)?
Its GI50 is 4.35 µM.

What about the TGI (UACC-257 melanoma) of the same compound?
The TGI was over 100 µM.

What about the GI50 (UACC-62 melanoma) of the same compound?
Its GI50 is 2.3 µM.

And the TGI (UACC-62 melanoma)?
Its TGI is over 100 µM.

What about the GI50 (UO-31 renal) of the same compound?
The GI50 was 4.01 µM.

What about the TGI (UO-31 renal) of the same compound?
The TGI was over 75.7 µM.
